Results reported in ChEMBL document CHEMBL3525949, “Role of organic anion-transporting polypeptides for cellular mesalazine (5-aminosalicylic acid) uptake” (Drug Metab Dispos, 2011).
One block for each molecule: values may come before it.

Columns and labels:
Assay type in all cases: ADME, cell-based
[1] = target: T1, Solute carrier organic anion transporter family member 1B1 (Homo sapiens, UniProt Q9Y6L6); assay: Inhibition of human OATP1B1 expressed HEK293 cells assessed as inhibition of [3H]sulfobromophthalein uptake by liquid scintillation counting
T1 sequence (Q9Y6L6 whole entry): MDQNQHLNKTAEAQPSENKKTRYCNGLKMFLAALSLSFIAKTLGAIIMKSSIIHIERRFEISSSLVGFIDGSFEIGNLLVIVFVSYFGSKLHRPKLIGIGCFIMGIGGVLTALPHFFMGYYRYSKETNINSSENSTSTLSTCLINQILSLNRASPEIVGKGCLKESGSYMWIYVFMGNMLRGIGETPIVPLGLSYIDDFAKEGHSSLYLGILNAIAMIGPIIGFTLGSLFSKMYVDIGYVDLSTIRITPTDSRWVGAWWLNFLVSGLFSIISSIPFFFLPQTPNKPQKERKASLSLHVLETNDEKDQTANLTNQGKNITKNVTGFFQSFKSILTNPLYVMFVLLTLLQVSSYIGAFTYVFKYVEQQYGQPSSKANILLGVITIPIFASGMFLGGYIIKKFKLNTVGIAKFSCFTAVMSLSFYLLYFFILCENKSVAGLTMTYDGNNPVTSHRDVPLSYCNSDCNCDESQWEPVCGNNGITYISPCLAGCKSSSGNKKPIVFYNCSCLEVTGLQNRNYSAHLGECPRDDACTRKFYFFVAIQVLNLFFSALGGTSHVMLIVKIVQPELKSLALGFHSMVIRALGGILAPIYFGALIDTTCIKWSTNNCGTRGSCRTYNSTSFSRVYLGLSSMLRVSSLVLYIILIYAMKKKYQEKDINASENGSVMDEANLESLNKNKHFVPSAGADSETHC

[2] = target: T2, Solute carrier organic anion transporter family member 1A2 (Homo sapiens, UniProt P46721); assay: Inhibition of human OATP1A2 expressed HEK293 cells assessed as inhibition of [3H]sulfobromophthalein uptake by liquid scintillation counting
T2 sequence (P46721 whole entry): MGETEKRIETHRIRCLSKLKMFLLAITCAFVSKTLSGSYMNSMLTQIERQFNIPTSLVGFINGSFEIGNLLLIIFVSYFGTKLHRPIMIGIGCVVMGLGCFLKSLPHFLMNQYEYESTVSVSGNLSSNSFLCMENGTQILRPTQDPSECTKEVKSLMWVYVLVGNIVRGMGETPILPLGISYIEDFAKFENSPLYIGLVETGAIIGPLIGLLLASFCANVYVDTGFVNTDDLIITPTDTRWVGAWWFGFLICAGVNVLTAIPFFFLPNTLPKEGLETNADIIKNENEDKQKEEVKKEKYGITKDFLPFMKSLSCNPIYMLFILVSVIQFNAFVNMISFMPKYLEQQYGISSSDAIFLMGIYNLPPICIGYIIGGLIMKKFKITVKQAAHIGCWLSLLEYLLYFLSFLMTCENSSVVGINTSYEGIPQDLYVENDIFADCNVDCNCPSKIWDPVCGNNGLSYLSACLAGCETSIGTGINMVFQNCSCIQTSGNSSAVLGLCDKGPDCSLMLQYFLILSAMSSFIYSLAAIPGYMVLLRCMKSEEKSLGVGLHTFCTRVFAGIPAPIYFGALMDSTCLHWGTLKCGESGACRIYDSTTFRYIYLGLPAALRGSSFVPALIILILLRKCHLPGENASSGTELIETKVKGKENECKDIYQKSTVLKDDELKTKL

[3] = target: T3, Solute carrier organic anion transporter family member 1B3 (Homo sapiens, UniProt Q9NPD5); assay: Inhibition of human OATP1B3 expressed HEK293 cells assessed as inhibition of [3H]sulfobromophthalein uptake by liquid scintillation counting
T3 sequence (Q9NPD5 whole entry): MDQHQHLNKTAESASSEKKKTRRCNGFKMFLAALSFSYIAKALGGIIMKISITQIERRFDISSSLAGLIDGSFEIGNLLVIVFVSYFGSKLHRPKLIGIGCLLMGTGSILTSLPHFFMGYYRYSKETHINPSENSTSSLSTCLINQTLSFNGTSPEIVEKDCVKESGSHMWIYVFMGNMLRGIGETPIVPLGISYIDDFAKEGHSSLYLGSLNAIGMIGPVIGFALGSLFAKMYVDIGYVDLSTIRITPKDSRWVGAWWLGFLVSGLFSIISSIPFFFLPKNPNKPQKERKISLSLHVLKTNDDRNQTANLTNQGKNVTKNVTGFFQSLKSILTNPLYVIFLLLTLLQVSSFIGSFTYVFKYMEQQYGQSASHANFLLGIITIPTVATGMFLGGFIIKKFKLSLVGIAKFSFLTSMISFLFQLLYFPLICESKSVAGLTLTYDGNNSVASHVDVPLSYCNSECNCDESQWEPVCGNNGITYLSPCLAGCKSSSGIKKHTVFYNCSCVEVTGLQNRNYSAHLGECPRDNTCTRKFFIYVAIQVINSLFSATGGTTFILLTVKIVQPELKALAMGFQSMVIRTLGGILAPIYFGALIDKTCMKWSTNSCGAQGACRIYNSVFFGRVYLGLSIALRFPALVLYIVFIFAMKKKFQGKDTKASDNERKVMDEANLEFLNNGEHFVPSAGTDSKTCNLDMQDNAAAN

[4] = target: T4, Solute carrier organic anion transporter family member 2B1 (Homo sapiens, UniProt O94956); assay: Inhibition of human OATP2B1 expressed HEK293 cells assessed as inhibition of [3H]sulfobromophthalein uptake by liquid scintillation counting
T4 sequence (O94956 whole entry): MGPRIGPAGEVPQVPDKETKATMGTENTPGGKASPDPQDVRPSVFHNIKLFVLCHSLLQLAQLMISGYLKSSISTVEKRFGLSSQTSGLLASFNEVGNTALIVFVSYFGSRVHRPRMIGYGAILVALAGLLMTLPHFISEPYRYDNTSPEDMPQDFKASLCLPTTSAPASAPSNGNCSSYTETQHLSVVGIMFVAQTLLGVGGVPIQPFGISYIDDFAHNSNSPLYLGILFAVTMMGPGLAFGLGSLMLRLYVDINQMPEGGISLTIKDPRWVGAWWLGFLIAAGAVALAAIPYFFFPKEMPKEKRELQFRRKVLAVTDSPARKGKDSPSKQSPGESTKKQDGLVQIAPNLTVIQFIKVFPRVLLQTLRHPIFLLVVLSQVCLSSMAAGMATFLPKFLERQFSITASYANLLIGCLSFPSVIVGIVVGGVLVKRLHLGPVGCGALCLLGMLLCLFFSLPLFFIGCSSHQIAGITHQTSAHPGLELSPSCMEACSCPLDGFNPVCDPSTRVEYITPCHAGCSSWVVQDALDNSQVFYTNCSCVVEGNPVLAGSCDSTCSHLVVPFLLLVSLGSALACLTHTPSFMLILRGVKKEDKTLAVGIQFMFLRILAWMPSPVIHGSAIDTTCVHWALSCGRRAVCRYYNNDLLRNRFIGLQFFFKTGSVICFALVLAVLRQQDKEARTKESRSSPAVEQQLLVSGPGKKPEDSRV

OATP2B1 = target: T5, OATP2B1 (Homo sapiens, UniProt O94956); assay: Drug uptake in human OATP2B1 expressed HEK293 cells at 20 uM relative to control cells; conditions: HEK293 cells expressing human OATP2B1, read-out: FC
T5 sequence (O94956 whole entry): T4 sequence (O94956 whole entry)

OATP1B3 [5] = target: T6, OATP1B3 (Homo sapiens, UniProt Q9NPD5); assay: Drug uptake in human OATP1B3 expressed HEK293 cells at 20 uM relative to control cells; conditions: HEK293 cells expressing human OATP1B3, read-out: FC
T6 sequence (Q9NPD5 whole entry): T3 sequence (Q9NPD5 whole entry)

OATP1B1 = target: T7, OATP1B1 (Homo sapiens, UniProt Q9Y6L6); assay: Drug uptake in human OATP1B1 expressed HEK293 cells at 20 uM relative to control cells; conditions: HEK293 cells expressing human OATP1B1, read-out: FC
T7 sequence (Q9Y6L6 whole entry): T1 sequence (Q9Y6L6 whole entry)

[6] = target: T3, Solute carrier organic anion transporter family member 1B3; assay: Drug uptake in human OATP1B3 expressed HEK293 cells assessed as net uptake measured per mg of protein
OATP1B3 [7] = target: T6, OATP1B3; assay: Drug uptake in human OATP1B3 expressed HEK293 cells assessed as net uptake; conditions: HEK293 cells expressing human OATP1B3
SCLO1B1*1a mutant = assay: Drug uptake in human SCLO1B1*1a mutant expressed HEK293 cells assessed as net uptake; conditions: HEK293 cells expressing human SCLO1B1*1a mutant
SCLO1B1*1b mutant = assay: Drug uptake in human SCLO1B1*1b mutant expressed HEK293 cells assessed as net uptake; conditions: HEK293 cells expressing human SCLO1B1*1b mutant
SCLO1B1*5 mutant = assay: Drug uptake in human SCLO1B1*5 mutant expressed HEK293 cells assessed as net uptake; conditions: HEK293 cells expressing human SCLO1B1*5 mutant
SCLO1B1*15 mutant = assay: Drug uptake in human SCLO1B1*15 mutant expressed HEK293 cells assessed as net uptake; conditions: HEK293 cells expressing human SCLO1B1*15 mutant
[8] = Drug uptake in human SCLO1B1*1a mutant expressed HEK293 cells assessed as net uptake measured per mg of protein
[9] = Drug uptake in human SCLO1B1*1b mutant expressed HEK293 cells assessed as net uptake measured per mg of protein
[10] = Drug uptake in human SCLO1B1*5 mutant expressed HEK293 cells assessed as net uptake measured per mg of protein
[11] = Drug uptake in human SCLO1B1*15 mutant expressed HEK293 cells assessed as net uptake measured per mg of protein
[12] = substrate: Nc1ccc(O)c(C(=O)O)c1; assay: Drug uptake in human OATP2B1 expressed HEK293 cells assessed as net uptake
[13] = substrate: Nc1ccc(O)c(C(=O)O)c1; assay: Drug uptake in human OATP1B1 expressed HEK293 cells assessed as net uptake

inhibition (INH) [1]: Dose-dependent effect
inhibition (INH) [2]: Dose-dependent effect
inhibition (INH) [3]: Dose-dependent effect
inhibition (INH) [4]: Dose-dependent effect
uptake ratio at 20 µM (OATP2B1): 2
uptake ratio at 20 µM (OATP1B3 [5]): 2.9
uptake ratio at 20 µM (OATP1B1): 2.7
Vmax [6]: 85.1 pmol/min
Km (OATP1B3 [7]): 77.4 µM
Km (SCLO1B1*1a mutant): 55.1 µM
Km (SCLO1B1*1b mutant): 16.3 µM
Km (SCLO1B1*5 mutant): 24.3 µM
Km (SCLO1B1*15 mutant): 32.4 µM
Vmax [8]: 28.3 pmol/min
Vmax [9]: 3.8 pmol/min
Vmax [10]: 6.1 pmol/min
Vmax [11]: 9.3 pmol/min
Molecule: Nc1ccc(O)c(C(=O)O)c1 [MESALAMINE]

B1: Solute carrier organic anion transporter family member 2B1 (Homo sapiens) (protein)
chain: T4 sequence (O94956 whole entry)
Km [12]: 189 µM
Vmax [12]: 3.72e-05 µmol/min

B2: Solute carrier organic anion transporter family member 1B1 (Homo sapiens) (protein)
chain: T1 sequence (Q9Y6L6 whole entry)
Km [13]: 55.1 µM
Vmax [13]: 2.83e-05 µmol/min
